According to patent US20060166900A1, “Salt of morphine-6-glucuronide” (CeNeS Limited, priority 2002, published 2006):

How the values were obtained:
Assay type in all cases: physicochemical
[1] = Stability of M6G salts at room temperature over 6 years, HPLC; conditions: for Assay M6G corr.: content calculated as M6G derivative; for degradation / discolouration: storage at room temperature for six years, hydrobromide
[2] = Water content by Karl Fisher analysis on storage (Example 3)
Protocol: Water content (% w/w) by Karl Fisher analysis
(§1) Each test material was stored between 2-8*C prior to placing on stability. Each material was sub-divided into 900 mg aliquots, transferred to brown opaque HDPE plastic bottles and flushed with Argon prior to sealing. Sufficient samples were provided for each time point as well as spares for each storage condition. The samples were placed in appropriate incubators previously commissioned at storage conditions 25° C./60% RH, 40° C./75% RH and 60° C.
Water Content by Karl Fisher Analysis
Water content was determined in duplicate on an aliquot of equilibrated material (approximately 100 mg) using a Tritrino 720 KFS Titrator.

[3] = Colour of solution by visible spectrophotometry on storage (Example 3); conditions: 5% w/v solution in water
Protocol: Colour of solution by UV spectrophotometry.
as §1
Colour by Visible Spectrophotometry
A 5% w/v solution of test material was prepared in water and the absorbance measured at 420 nm in a 1 cm silica cell using a Unicam UV4 Visible/UV spectrophotometer.

[4] = Stability indicating HPLC assay and related substances on storage (Example 3)
Protocol: Assay (% w/w) and related substances determination
as §1
Testing Procedures Test for Identity Content and Impurities
Testing was performed in duplicate (2×25 mg) in accordance with a stability indicating HPLC assay method. The assay results were reported as M6G as is, M6G as the anhydrous, solvent free material and the anhydrous solvent free material corrected for the salt form using the relevant conversion factor.

[5] = Visual appearance on storage (Example 3)
Protocol: as §1
The samples were stored for analysis according to the following table: […]

[6] = almost 6 years at room temperature
[7] = listed as hydrobromide salt of M6G

Compound: Br.CN1CC[C@]23c4c5ccc(O)c4O[C@H]2[C@@H](O[C@@H]2O[C@H](C(=O)O)[C@@H](O)[C@H](O)[C@H]2O)C=C[C@H]3[C@H]1C5 [Morphine-6-glucuronide hydrobromide]
- HN-33177 ([1]; 0 years): 0.3%
- HN-75083 ([1]; 0 years): <0.1%
- Unknown related substances (sum area %) ([1]; 0 years): <0.1 area %
- Assay M6G corr. ([1]; 0 years): 90.7%
- HN-33177 ([1]; 6 years at ambient temperature): 0.4%
- HN-67002 ([1]; 6 years at ambient temperature): 0.5%
- HN-67003 ([1]; 6 years at ambient temperature): 0.2%
- Unknown related substances (sum area %) ([1]; 6 years at ambient temperature): 1.0 area %
- Assay M6G corr. ([1]; 6 years at ambient temperature): 96.3%
- largest unidentified peak [1, 6]: ≤ 0.4 area %
- peaks present in the chromatogram that cannot be identified by retention time [1, 6]: 4
- degradation ([1]; listed as M6G.HBr): very limited amount of degradation
- discolouration ([1]; listed as M6G.HBr): no discolouration
- degradation [1, 7]: very limited degradation
- discolouration [1, 7]: not discoloured
- Moisture ([2]; 1 month, 25° C./60% RH): 2.56 % w/w
- Moisture ([2]; 1 month, 40° C./75% RH): 3.19 % w/w
- Moisture ([2]; 1 month, 60° C.): 1.95 % w/w
- Moisture ([2]; 3 months, 25° C./60% RH): 3.28 % w/w
- Moisture ([2]; 3 months, 40° C./75% RH): 4.24 % w/w
- Moisture ([2]; Initial): 2.38 % w/w
- Colour ([3]; 1 month, 25° C./60% RH): 0.073 Abs@420 nm
- Colour ([3]; 1 month, 40° C./75% RH): 0.064 Abs@420 nm
- Colour ([3]; 1 month, 60° C.): 0.261 Abs@420 nm
- Colour ([3]; 3 months, 25° C./60% RH): 0.046 Abs@420 nm
- Colour ([3]; 3 months, 40° C./75% RH): 0.066 Abs@420 nm
- Colour ([3]; Initial): 0.029 Abs@420 nm
- Known Related Substances HN33177 ([4]; 1 month, 25° C./60% RH): 0.74%
- Known Related Substances HN75083 ([4]; 1 month, 25° C./60% RH): 0.03%
- M6G Assay, Anhydrous basis ([4]; 1 month, 25° C./60% RH): 85.18 % w/w
- M6G Assay, As is basis ([4]; 1 month, 25° C./60% RH): 83.02 % w/w
- M6G Assay, Corrected for the salt form ([4]; 1 month, 25° C./60% RH): 100.11 % w/w
- Total Known ([4]; 1 month, 25° C./60% RH): 0.77%
- Total Related Substances ([4]; 1 month, 25° C./60% RH): 0.84%
- Total Unknown ([4]; 1 month, 25° C./60% RH): 0.07%
- Known Related Substances HN33177 ([4]; 1 month, 40° C./75% RH): 0.74%
- Known Related Substances HN75076 ([4]; 1 month, 40° C./75% RH): 0.01%
- Known Related Substances HN75083 ([4]; 1 month, 40° C./75% RH): 0.05%
- M6G Assay, Anhydrous basis ([4]; 1 month, 40° C./75% RH): 85.09 % w/w
- M6G Assay, As is basis ([4]; 1 month, 40° C./75% RH): 82.40 % w/w
- M6G Assay, Corrected for the salt form ([4]; 1 month, 40° C./75% RH): 100.01 % w/w
- Total Known ([4]; 1 month, 40° C./75% RH): 0.80%
- Total Related Substances ([4]; 1 month, 40° C./75% RH): 0.80%
- Total Unknown ([4]; 1 month, 40° C./75% RH): 0.00%
- Known Related Substances HN33177 ([4]; 1 month, 60° C.): 0.66%
- Known Related Substances HN67003 ([4]; 1 month, 60° C.): 0.10%
- Known Related Substances HN75076 ([4]; 1 month, 60° C.): 0.04%
- Known Related Substances HN75083 ([4]; 1 month, 60° C.): 0.02%
- M6G Assay, Anhydrous basis ([4]; 1 month, 60° C.): 84.44 % w/w
- M6G Assay, As is basis ([4]; 1 month, 60° C.): 82.82 % w/w
- M6G Assay, Corrected for the salt form ([4]; 1 month, 60° C.): 99.25 % w/w
- Total Known ([4]; 1 month, 60° C.): 0.82%
- Total Related Substances ([4]; 1 month, 60° C.): 1.20%
- Total Unknown ([4]; 1 month, 60° C.): 0.38%
- stability based on % w/w assay ([4]; 3 month assay data): most stable
- Known Related Substances HN33177 ([4]; 3 months, 25° C./60% RH): 0.77%
- Known Related Substances HN75083 ([4]; 3 months, 25° C./60% RH): 0.04%
- M6G Assay, Anhydrous basis ([4]; 3 months, 25° C./60% RH): 86.19 % w/w
- M6G Assay, As is basis ([4]; 3 months, 25° C./60% RH): 84.30 % w/w
- M6G Assay, Corrected for the salt form ([4]; 3 months, 25° C./60% RH): 101.30 % w/w
- Total Known ([4]; 3 months, 25° C./60% RH): 0.81%
- Total Related Substances ([4]; 3 months, 25° C./60% RH): 0.93%
- Total Unknown ([4]; 3 months, 25° C./60% RH): 0.12%
- Known Related Substances HN33177 ([4]; 3 months, 40° C./75% RH): 0.70%
- Known Related Substances HN75076 ([4]; 3 months, 40° C./75% RH): 0.02%
- M6G Assay, Anhydrous basis ([4]; 3 months, 40° C./75% RH): 85.85 % w/w
- M6G Assay, As is basis ([4]; 3 months, 40° C./75% RH): 83.14 % w/w
- M6G Assay, Corrected for the salt form ([4]; 3 months, 40° C./75% RH): 100.90 % w/w
- Total Known ([4]; 3 months, 40° C./75% RH): 0.72%
- Total Related Substances ([4]; 3 months, 40° C./75% RH): 0.72%
- Total Unknown ([4]; 3 months, 40° C./75% RH): 0.00%
- increase in the amount of degradation products as measured by HPLC ([4]; 3 months, 40° C./75% RH): basically no increase
- stability assessment ([4]; 25° C./60% RH and 40° C./75% RH for 3 months and 60° C. for 1 month): stable
- Known Related Substances HN33177 ([4]; Initial): 0.72%
- Known Related Substances HN67003 ([4]; Initial): 0.04%
- Known Related Substances HN75083 ([4]; Initial): 0.10%
- M6G Assay, Anhydrous basis ([4]; Initial): 83.63 % w/w
- M6G Assay, As is basis ([4]; Initial): 82.26 % w/w
- M6G Assay, Corrected for the salt form ([4]; Initial): 98.29 % w/w
- Total Known ([4]; Initial): 0.86%
- Total Related Substances ([4]; Initial): 0.94%
- Total Unknown ([4]; Initial): 0.08%
- overall stability comparison ([4]; overall review of Example 3 data): more stable than all other salts and the base
- Appearance ([5]; 1 month, 25° C./60% RH): White crystalline powder
- Appearance ([5]; 1 month, 40° C./75% RH): White crystalline powder
- Appearance ([5]; 1 month, 60° C.): White crystalline powder
- Appearance ([5]; 3 months, 25° C./60% RH, hydrobromide): White crystalline powder
- Appearance ([5]; 3 months, 25° C./60% RH, listed as hydrobromide, hydrobromide): white crystalline solids
- Appearance ([5]; 3 months, 40° C./75% RH): White crystalline powder
- Appearance ([5]; Initial): White crystalline powder
